Consider 96 molecules from PubChem BioAssay AID540268 (Broad Institute, 2011).

The test can be described thus: growth inhibition of yeast carrying parasite Hsp90, dose response, anti-malarial Hsp90 inhibitor project, ATP luminescence, 48 h, cherry-picked samples (AID 540268).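 For activity change, negative = inhibition: 0% = neutral control wells and -100% = positive control wells.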 The following applies: yeast expressing the parasite Hsp90, ATP luminescence; for activity change, negative = inhibition: at 26 µM (top of the series).

SMILES strings stand for the structures. Active and inactive are the calls of the source. The rule behind the calls is not given here. Bounds are passed on as bounds.

The term AC50 denotes the concentration at which the activity in the assay is half-maximal. As for `COCC(=O)n1nc(NCc2ccc(OC)cc2)nc1NCc1ccc(OC)cc1`, the AC50 is 8.06 µM.
The same measure, in the same setting: with `CCN(CC)c1ccc(C(=C2C=CC(=[N+](CC)CC)C=C2)c2ccc(N(CC)CC)cc2)cc1` the figure was 0.735 µM; with `CC(C)(C)c1cc(NCc2ccccn2)n2ncc(-c3ccccc3)c2n1`, 1.49 µM; with `Cc1cc(C)c(S(=O)(=O)N2CCC(C(=O)NCc3ccc(Cl)cc3Cl)CC2)c(C)c1`, 0.835 µM.
For `C[C@@]12C(=O)Nc3ccc(F)cc3C(=O)N1[C@H]1c3ccccc3OC[C@@H]1[C@@H]2c1ccccc1`, the concentration at half-maximal activity (AC50) is less than 0.195 µM.
The same measure, in the same setting: with `COc1ccc2c(c1)OC[C@H]1[C@H]2N2C(=O)c3cc(OC)ccc3NC(=O)[C@@]2(C)[C@H]1c1ccccc1` the figure was 24.7 µM.
On to `Cc1cc(NC(c2ccc(Cl)cc2)c2ccc3cccnc3c2O)no1` (stereo unspecified), for which the AC50 was 4.2 µM.
Consider `CCOC(=O)c1ccc(N2C(=O)CC(N(C)CCc3ccc(OC)c(OC)c3)C2=O)cc1` (stereo unspecified), for which the half-maximal activity concentration (AC50) is 3.14 µM.
On the same count and under the same terms, with `COc1ccc(NC(=O)c2cc([N+](=O)[O-])ccc2O)cc1` the figure was 5.24 µM.
On the same count and under the same terms, with `Clc1ccc(N=c2ssnc2Cl)cc1` the figure was 2.69 µM.
As to `COC(=O)C1=C(C(=O)OC)SC2(S1)C(C(=O)OC)=C(C(=O)OC)Sc1c2ssc1=O`, the AC50 was 8.87 µM.
`COc1cc(/C=C/[N+](=O)[O-])ccc1OC(=O)c1cccnc1`: the half-maximal activity concentration (AC50) is 1.65 µM.
Same read-out and setting: with `O=C(NCC1CCCO1)c1cc([N+](=O)[O-])ccc1N1CCC(Cc2ccccc2)CC1` (stereo unspecified) the figure was 4.06 µM.
Consider `NC(=O)/C=C\C(=O)Nc1cccc(C(F)(F)F)c1`, for which the activity change, negative = inhibition was 12.6% (inactive).
For the molecule `O=C(/C=C/N1CCOCC1)c1ccc(-c2ccccc2)cc1`, the AC50 was 4.23 µM.
Take `CCCC1COC(Cn2cncn2)(c2ccc(Cl)cc2Cl)O1` (stereo unspecified): the AC50 was less than 0.195 µM.
As for `c1ccc(C(=NNc2nc3ccccc3s2)c2ccccn2)cc1`, the AC50 was 22.3 µM.
Same read-out and setting: with `N/C(Cc1ccc(Cl)c(Cl)c1)=N\OC(=O)c1cccs1` the figure was 2.22 µM; with `O=C(C=P(c1ccccc1)(c1ccccc1)c1ccccc1)c1ccccc1-c1ccccc1C(=O)C=P(c1ccccc1)(c1ccccc1)c1ccccc1`, 5.12 µM; with `CC(C)C(=O)NC(c1ccc(Cl)cc1Cl)c1ccc2cccnc2c1O` (stereo unspecified), 15.3 µM.
Still for that read-out and setting: with `O=C(CSCC(=O)N1CCCCC1)Nc1nc(-c2ccc(Cl)s2)cs1` the figure was 4.76 µM; with `COc1cccc(F)c1C(C[N+](=O)[O-])c1c(N)n(C)c(=O)n(C)c1=O` (stereo unspecified), 4.3 µM; with `Cc1ccc(C(=O)c2no[n+]([O-])c2C(=O)c2ccc(C)cc2)cc1`, 2.03 µM.
The same measure, in the same setting: with `O=S(=O)(c1c(F)cccc1F)N(CCc1ccc(F)cc1)C[C@@H](O)COCc1ccccc1` the figure was 1.2 µM; with `CC(C)=CCc1c2c(c3occ(-c4ccc(O)c(O)c4)c(=O)c3c1O)C=CC(C)(C)O2`, 8.75 µM; with `CCOC(=O)/C(=C/c1ccc(OC(=O)c2ccccc2)cc1)C(C)=O`, 1.43 µM.
As to `CCN(CC)S(=O)(=O)c1cccc(C(=O)NCC(c2ccccc2)N(C)C)c1` (stereo unspecified), the AC50 is 3.92 µM.
Same read-out and setting: with `Cc1ccc(O)c(N=Nc2nccs2)c1` the figure was 1.2 µM.
As for `CC(C)(C)c1nn(-c2ccccc2)c2[nH]c(=O)c(CNc3ccc4c(c3)OCCO4)cc12`, the activity change, negative = inhibition was -106% (inactive).
For `N/C(Cc1ccc(Cl)cc1Cl)=N\OC(=O)c1ccc(Br)o1`, the AC50 was 4.14 µM.
For `O=C(c1ccccc1)c1cc(Cl)ccc1N1C(=O)C=CC1=O`, the AC50 was 0.432 µM.
Take `CC(=O)NC(c1ccc(Cl)cc1)c1ccc2cccnc2c1O` (stereo unspecified): the AC50 is 2.58 µM.
As for `O=[N+]([O-])c1ccc(S(=O)(=O)c2cccc(C(F)(F)F)c2)nc1`, the AC50 was 2.52 µM.
For `CC(=O)NC(c1ccccc1)c1cc(Cl)c2cccnc2c1O` (stereo unspecified), the AC50 is 7.28 µM.
On the same count and under the same terms, with `CCN1/C(=C/c2ccc3cc(C)ccc3[n+]2CC)Sc2cc(C)c(C)cc21` the figure was 3.25 µM; with `CN1CCN(C(c2ccccn2)c2cc(Cl)c3cccnc3c2O)CC1` (stereo unspecified), 7.88 µM.
As to `CC(C)CC(=O)/C(=C\c1ccc(Cl)cc1Cl)n1cncn1`, the AC50 is 1.75 µM.
Take `CC(C)N(CCC(=O)c1ccc2ccccc2c1)Cc1ccccc1`: the AC50 was 17.6 µM.
The same measure, in the same setting: with `CN(O)C(=S)c1ccccc1` the figure was 4.38 µM; with `O=C(OCC(=O)C12CC3CC(CC(C3)C1)C2)c1ccc(O)cc1`, 1.06 µM; with `O=C(NN1C(=O)/C(=C\c2ccc(O)c([N+](=O)[O-])c2)SC1=S)c1ccccc1Cl`, 5.92 µM.
`O=C(NCCCSc1ccccc1)c1cc(Br)ccc1O`: the AC50 is 7.37 µM.
Still for that read-out and setting: with `Oc1ccc(/C=N/N(Cc2ccccc2)c2ccccc2)cc1` the figure was 8.09 µM; with `C=C1C(=O)C23CCC4C(C)(C(=O)OC)CCCC4(C)C2CCC1(O)C3` (stereo unspecified), 1.54 µM.
With `Cc1cccc(N2CCN(S(=O)(=O)c3c(C)noc3/C=C/N(C)C)CC2)c1C`, the half-maximal activity concentration (AC50) was 8.39 µM.
Still for that read-out and setting: with `COc1ccc(OC)c(N2C(=O)NC(=O)/C(=C/c3ccc([N+](=O)[O-])s3)C2=O)c1` the figure was 4.26 µM; with `CCCCCCOC(=O)Sc1nc2ccccc2o1`, 1.57 µM.
The same measure, in the same setting: with `COc1ccc(C(=O)O/N=C2\C(=O)N(C)c3ccccc32)cc1` the figure was less than 0.195 µM.
`COc1cccc(N=Nc2ccc(O)c3ncccc23)c1`: the AC50 was 3.57 µM.
Take `COc1ccc(CCN2C(=O)C=CC2=O)cc1OC`: the half-maximal activity concentration (AC50) was 1.41 µM.
The same measure, in the same setting: with `COc1ccc2c(c1)C=C(C(=O)NCc1ccc(Cl)cc1)CO2` the figure was 4.21 µM; with `OC(Cn1cncn1)(c1ccccc1)c1ccccc1`, 1.57 µM.
Still for that read-out and setting: with `Cc1cc([N+](=O)[O-])c2ccccc2[n+]1[O-]` the figure was less than 0.195 µM.
Still for that read-out and setting: with `O=C(/C=C/c1cccc([N+](=O)[O-])c1)c1ccco1` the figure was 4.27 µM.
On to `O=C(O)CC/C(=N/Nc1ccc([N+](=O)[O-])cc1)C(=O)O`, for which the AC50 is 2.22 µM.
Still for that read-out and setting: with `Cc1cccc(NC(=S)NCC23C=CC(O2)C2C(=O)N(c4ccc(Cl)cc4)C(=O)C23)c1` (stereo unspecified) the figure was 8.4 µM.
Take `Oc1ccc2ccccc2c1/C=N/Nc1nnc(-c2ncc[nH]2)c2ccccc12`: the AC50 is 4.24 µM.
Take `Cc1ccc(S(=O)(=O)NCC23C=CC(O2)C2C(=O)N(c4ccccc4)C(=O)C23)cc1` (stereo unspecified): the AC50 was 4.8 µM.
Turning to `CCCOc1ccc2ccccc2c1/C=C1\SC(=O)NC1=O`, the half-maximal activity concentration (AC50) is 7.76 µM.
The same measure, in the same setting: with `O=C(/C=C/c1ccccc1Cl)c1ccc(O)cc1` the figure was 4.63 µM; with `CC[C@@H]1Cc2cc(O)ccc2C2=C1c1ccc(O)cc1C[C@H]2CC`, 7.76 µM; with `C[C@@]12C(=O)Nc3ccc(Br)cc3C(=O)N1[C@H]1c3ccccc3OC[C@@H]1[C@@H]2c1ccccc1`, 0.404 µM.
The same measure, in the same setting: with `Cc1[nH]n(-c2ccc([N+](=O)[O-])cc2)c(=O)c1C=NCCN1CCN(C(=O)c2cccc(F)c2)CC1` the figure was 5.83 µM.
Consider `Oc1c(Br)cc(Br)cc1C=NCc1ccccc1`, for which the AC50 is 7.51 µM.
Take `CCN1/C(=C/c2ccc3cc(C)ccc3[n+]2CC)Sc2cc(C)ccc21`: the half-maximal activity concentration (AC50) was 5.54 µM.
Turning to `CCOC(=O)c1cc([N+](=O)[O-])cc([N+](=O)[O-])c1Sc1ncnc2nc[nH]c12`, the activity change, negative = inhibition was -6.96% (inactive).
With `O=C(N/N=C/c1ccccn1)c1cc(-c2ccc(Cl)cc2)nc2ccccc12`, the concentration at half-maximal activity (AC50) is 8.57 µM.
Same read-out and setting: with `O=C(Nc1nc(-c2ccccc2)cs1)c1ccccc1NS(=O)(=O)c1ccc(F)cc1` the figure was 4.09 µM.
For `Cc1cccc(C)c1NC(=O)C(Cl)C(=O)c1ccccc1` (stereo unspecified), the AC50 was 1.11 µM.
On to `Oc1c(Br)cc(Br)cc1C=NCc1ccc(F)cc1`, for which the AC50 was 8.5 µM.
Still for that read-out and setting: with `O=C(/C=C/c1cccc([N+](=O)[O-])c1)c1cccs1` the figure was 2.63 µM; with `CCC(C)(C)n1nnnc1C(c1cccnc1)N1CCC(Cc2ccccc2)CC1` (stereo unspecified), 1.52 µM; with `O=[N+]([O-])c1c(Nc2ccccn2)cc(Cl)c2nonc12`, 0.803 µM.
Same read-out and setting: with `COc1ccc(C(C[N+](=O)[O-])n2nc(C)cc2C)cc1` (stereo unspecified) the figure was 0.365 µM.
Consider `CCC(C)Nc1ccc(NC(C)CC)cc1` (stereo unspecified), for which the half-maximal activity concentration (AC50) was 3.26 µM.
For the molecule `CCCC(=O)NC(c1ccco1)c1cc(Cl)c2cccnc2c1O` (stereo unspecified), the AC50 is 4.36 µM.
Still for that read-out and setting: with `CC(C)N1C(=O)/C(=C\c2nc3ccccc3c(=O)[nH]2)c2ccccc21` the figure was 6.47 µM.
The same measure, in the same setting: with `COc1ccc(/C=C/C(=O)c2cc(Br)ccc(=O)c2O)cc1` the figure was 3.21 µM; with `O=C1C=CC(=O)N1CCCCCCCCCCN1C(=O)C=CC1=O`, 0.837 µM.
With `CCN1/C(=C\c2ccc3ccccc3[n+]2CC)Sc2cc(C)ccc21`, the concentration at half-maximal activity (AC50) was 7.9 µM.
Consider `Cc1[nH]c(N=Nc2ccccc2)nc1N=Nc1ccccc1`, for which the concentration at half-maximal activity (AC50) is 4.41 µM.
With `COc1ccc(N2CCN(C(=O)c3ccc(Br)cc3)CC2)c([N+](=O)[O-])c1`, the concentration at half-maximal activity (AC50) was 0.497 µM.
Still for that read-out and setting: with `CC1=CC(=O)C(C(C)C)=C/C1=N/OS(=O)(=O)c1ccccc1` the figure was 3.09 µM; with `O=C(Nc1nnc(SCc2ccc(F)cc2)s1)c1ccccn1`, 4.41 µM.
`Oc1c(C(c2ccc(Cl)cc2)N2CCCC2)cc(Cl)c2cccnc12` (stereo unspecified): the concentration at half-maximal activity (AC50) was 1.58 µM.
On the same count and under the same terms, with `CCCCC(=O)NC(c1cccs1)c1cc(Cl)c2cccnc2c1O` (stereo unspecified) the figure was 4.18 µM; with `COc1cc(C#Cc2c(-c3cncn3C)n(C)c3ccc(-c4ccc(OC)nc4)cc23)cc(OC)c1`, 4.74 µM; with `Cc1ccc(N2C(=O)C3C4C=CC(CNC(=S)Nc5cccc(Cl)c5)(O4)C3C2=O)cc1` (stereo unspecified), 8.74 µM.
As to `O=C(CCSc1nnc(-c2ccncc2)o1)Nc1ccc(Cl)cc1`, the AC50 was 2.87 µM.
For the molecule `CC1CCN(C(CC(=O)c2ccccc2)C(=O)c2ccccc2)CC1` (stereo unspecified), the AC50 is 3.28 µM.
Still for that read-out and setting: with `COC(=O)c1ccc(N2C(=O)CC(N3CCC(O)(c4ccc(Br)cc4)CC3)C2=O)cc1` (stereo unspecified) the figure was 3.37 µM.
Same read-out and setting: with `Cc1cccc(N2C(=O)/C(=C\c3ccc(OC(F)F)cc3)c3ccccc3C2=O)c1` the figure was 4.64 µM.
In the case of `C=CCc1c(C)c(C#N)c2nc3ccccc3n2c1NCCN(C)C`, the AC50 is 4.58 µM.
On the same count and under the same terms, with `CN(C)/C=C/C(=O)c1ccc2noc(-c3ccccc3)c2c1` the figure was 8.37 µM; with `CCOC(=O)c1c(-n2c(C)cc(C=C3C(=O)NC(=S)NC3=O)c2C)sc2c1CCCC2`, 2.99 µM; with `COc1cccc(N=Nc2ccc3cccnc3c2O)c1`, 2.39 µM.
